# Where two headings read alike, the source gives them in different places.
# Details: diastereomeric ratio 1,2 to 3,4 in solids 95:5
smiles,measurement,setting,value
O=C(O)c1ccccc1O [Salicylate],stability remark for salt solids,salt prepared in EtOH,stable
same,stability remark for salt solids,salt prepared in iPrOAc,stable

# — patent publication US20030139446A1, “Preparation of pharmaceutical salts” (Schering Corporation, priority 2001, published 2003)
